Laboratory results as given in patent US7220732B2, “Compounds useful as photodynamic therapeutic agents” (priority 2002, dated 2007).

What was measured:
[1] = Spectroscopic absorbance properties; type: physicochemical
Source text: (§1) The absorption bands of each photosensitiser are relatively insensitive to solvent changes with solutions in water/Cremophor resulting in a further bathochromic shift of ˜10 nm (Table 1). Excitation of chloroform solutions of the 2a and 4a at 635 nm gave a fluorescence band at 672 and 673 nm respectively (FIG. 2, Table 2). […] The reduction in fluorescence quantum yield in the series would imply more efficient population of the triplet excited state which would benefit singlet oxygen production. The ability of 2 and 4 to produce singlet oxygen would be a prerequisite to them being potential PDT agents.

HeLa cells [2] = experiment: F-actin staining fluorescence microscopy of treated HeLa cells; type: cell-based
Experimental: FIG. 15 illustrates a control experiment which is a fluorescence microscope image of F-actin stained HeLa cells (with rhodamine phalloidine, red colour) 24 hours after treatment with Compound 2a and no exposure to light (0 min light dose). FIG. 15 illustrates such F-Actin stained cells are live.
FIG. 16 confirms cell death following treatment with Compound 2a and 30 minute 500 W light dose, using fluorescence microscopy. More specifically, FIG. 16 is a fluorescence microscope image of F-actin stained HeLa cells (with rhodamine phalloidine, red colour) 24 hours after treatment with Compound 2a and 30 minute light dose.

HeLa cells [3] = experiment: Fluorescence microscopy efflux study in HeLa cells; type: cell-based; details: after 3 hrs incubation with 10^−5 M
Experimental: Cells were seeded at a density of 30,000 cells/well in chamber slides and allowed to adhere for 24 hr. A compound of the present invention (10^−5 M) was then added to each chamber and incubated at 37° C. in the dark for 3 hrs. The same procedure was used as for the uptake studies, but for the efflux studies, the cells were treated with fixative solution at specified times after removal of the drug, for example, 5 min, 15 min, 30 min, 1 hr, 2 hr, 3 hr, 6 hr and 24 hr. The slides were then viewed using an Axio Zeiss fluorescent microscope. The cells were examined at the different time points using two different filters. The rhodamine filter was used to visualise the compound of the present invention. […]
LabWorks (Bioimaging Systems) was used to calculate the average fluorescence intensity per cell for each of the different time points used in the uptake and efflux studies for the compounds of the present invention. […] The DAPI filter was used to accurately count the number of cells in each field of view and the rhodamine filter was used to quantify the fluorescence of the compounds of the present invention.
Using the assay method set out above under the heading “Fluorescence Microscopy”, the efflux of 2a was examined from Hela cells and the data are illustrated in FIG. 7. […]

[4] = Fluorescence emission and fluorescence quantum yield; type: physicochemical
Source text: as §1

HeLa cells [5] = experiment: Fluorescence microscopy cellular localisation (DAPI dual staining); type: cell-based; details: 10^−5 M, DAPI nuclear stain
Experimental: Cells were seeded at a density of 30,000 cells/well in chamber slides and allowed to adhere for 24 hr. 2a (10^−5 M) was then added to each chamber and incubated at 37° C. in the dark for either 1 hr or 3 hrs at 37° C.—a one hour incubation was used for FIGS. 4 and 5. The medium was removed and the cells were washed 4 times with drug-free (2a free) medium. The cells were then fixed with 3.7% (v/v) formaldehyde for 15 min at 37° C. The fixative solution was removed and the cells were washed twice with sterile PBS. DAPI (4′,6-diamidino-2-phenylindole) nuclear stain (1/1000) was then incubated with the cells for 10 min at 37° C., following which the cells were washed twice with PBS. Cells were then mounted in Vectashield (Trade Mark) mounting medium.
The cells were viewed using an Axio Zeiss fluorescent microscope. The cells were examined at the different time points using two different filters. The rhodamine filter, which is specific for the wavelength region in which 2a fluoresces, was used to visualise 2a. The DAPI filter was employed to examine the nuclei of the cells.
Cancer cellular uptake of a photosensitiser is a prerequisite for it to act as a PDT agent. Delivery of our proposed PDT agents required formulation of the sensitisers in order to impart water solubility. […]

HeLa cells [6] = experiment: Fluorescence microscopy uptake study in HeLa cells; type: cell-based; details: 10^−5 M, water/Cremophor
Experimental: Cells were seeded at a density of 30,000 cells/well in chamber slides and allowed to adhere for 24 hr. A compound of the present invention (10^−5 M) was then added to each chamber and incubated at 37° C. in the dark over time, for example, 15 min, 30 min, 1 hr, 3 hr and 6 hr. The medium was removed after the specified time and the cells were washed 4 times with medium free of that compound of the invention. The cells were then fixed with 3.7% (v/v) formaldehyde for 15 min at 37° C. The fixative solution was removed and the cells were washed twice with sterile PBS. DAPI nuclear stain (1/1000) was then incubated with the cells for 10 is min at 37° C., following which the cells were washed twice with PBS. Cells were then mounted in Vectashield (Trade Mark) mounting medium.
LabWorks (Bioimaging Systems) was used to calculate the average fluorescence intensity per cell for each of the different time points used in the uptake and efflux studies for the compounds of the present invention. […] The DAPI filter was used to accurately count the number of cells in each field of view and the rhodamine filter was used to quantify the fluorescence of the compounds of the present invention. […]
Using the assay method set out above under the heading “Fluorescence Microscopy”, the uptake of 2a was examined for HeLa and MRC5 […] cell lines and the data are illustrated in FIGS. 6a and 6b, respectively. […]

[7] = Water/Cremophor (100:1), room temperature

Which “fwhm (full width at half maximum)” value ([1]; CHCl3, room temperature) does the source give for `F[B-]1(F)n2c(-c3ccccc3)cc(-c3ccccc3)c2N=C2C(c3ccccc3)=CC(c3ccccc3)=[N+]21` [Compound 2a] here?
The value was 49 nm.

What about the “ε (molar extinction coefficient)” value ([1]; CHCl3, room temperature) of the same molecule?
The value was 79,000 M^−1cm^−1.

What about the “λmax (absorbance)” value ([1]; CHCl3, room temperature) of the same molecule?
The value was 650 nm.

What about the “fwhm (full width at half maximum)” value [1, 7] of the same molecule?
The value was 53 nm.

And the “λmax (absorbance)” value [1, 7]?
The value was 658 nm.

And the “cell state by F-actin staining” value (HeLa cells [2]; 24 hours after treatment and 30 minute 500 W light dose)?
Its value is “cell death”.

What about the “cell state by F-actin staining” value (HeLa cells [2]; 24 hours after treatment, no exposure to light) of the same molecule?
Its value is “live”.

And the “time to complete efflux” value (HeLa cells [3])?
The value was 1000 min.

What about the “λ em (fluorescence band)” value ([4]; CHCl3, room temperature, excitation at 635 nm) of the same molecule?
The value was 672 nm.

And the “λ em (fluorescence band)” value [4, 7]?
The value was 683 nm.

And the “Φf (fluorescence quantum yield)” value ([4]; relative to magnesium tetra-tert-butylphthalocyanine in CHCl3, room temperature)?
Its value is 0.34.

And the cellular localisation (HeLa cells [5])?
Its cellular localisation is “primarily at the endoplasmic reticulum and not in the nucleus”.

What about the “time of maximum uptake” value (HeLa cells [6]) of the same molecule?
The value was 300 min.
